Source: BindingDB's records for doi:10.1021/ml5002954 (Uppsala University, 2014)

Experiments:
[1] = biological target: Substance P 1-7 binding site; assay: Displacement of [3H]-SP1-7 from SP1-7 binding site by scintillation counting analysis
[2] = biological target: Substance P 1-7 binding site; assay: Binding affinity to SP1-7 binding site

| IC50 [1] [nM] | Ki [1] [nM] | Ki [2] [nM] | SMILES |
| --- | --- | --- | --- |
| 17 | – | – | N#CNC(=O)[C@H](Cc1ccccc1)NC(=O)OCc1ccccc1 |
| 6.5 | – | – | O=C(N[C@@H](Cc1ccccc1)C(=O)NNC(=O)c1ccccc1)OCc1ccccc1 |
| 6.2 | 5.2 | 5.2 | NC(=O)[C@H](Cc1ccccc1)NC(=O)OCc1ccccc1 |
| 9 | – | – | O=C(N[C@@H](Cc1ccccc1)c1nnc(-c2ccccc2)o1)OCc1ccccc1 |
